Data on 24 molecules can be found in patent US20210323977A1, “PYRROLIDINYL AMIDE COMPOUNDS FOR THE TREATMENT OF AUTOIMMUNE DISEASE” (Hoffmann-La Roche Inc., priority 2018, published 2021).

Usually IC50 stands for the concentration that gives 50% inhibition. Low readings indicate higher potency, high ones lower potency.

This assay addresses T1, human TLR8 (Homo sapiens, UniProt Q9NR97).
T1 sequence (Q9NR97 27-1041): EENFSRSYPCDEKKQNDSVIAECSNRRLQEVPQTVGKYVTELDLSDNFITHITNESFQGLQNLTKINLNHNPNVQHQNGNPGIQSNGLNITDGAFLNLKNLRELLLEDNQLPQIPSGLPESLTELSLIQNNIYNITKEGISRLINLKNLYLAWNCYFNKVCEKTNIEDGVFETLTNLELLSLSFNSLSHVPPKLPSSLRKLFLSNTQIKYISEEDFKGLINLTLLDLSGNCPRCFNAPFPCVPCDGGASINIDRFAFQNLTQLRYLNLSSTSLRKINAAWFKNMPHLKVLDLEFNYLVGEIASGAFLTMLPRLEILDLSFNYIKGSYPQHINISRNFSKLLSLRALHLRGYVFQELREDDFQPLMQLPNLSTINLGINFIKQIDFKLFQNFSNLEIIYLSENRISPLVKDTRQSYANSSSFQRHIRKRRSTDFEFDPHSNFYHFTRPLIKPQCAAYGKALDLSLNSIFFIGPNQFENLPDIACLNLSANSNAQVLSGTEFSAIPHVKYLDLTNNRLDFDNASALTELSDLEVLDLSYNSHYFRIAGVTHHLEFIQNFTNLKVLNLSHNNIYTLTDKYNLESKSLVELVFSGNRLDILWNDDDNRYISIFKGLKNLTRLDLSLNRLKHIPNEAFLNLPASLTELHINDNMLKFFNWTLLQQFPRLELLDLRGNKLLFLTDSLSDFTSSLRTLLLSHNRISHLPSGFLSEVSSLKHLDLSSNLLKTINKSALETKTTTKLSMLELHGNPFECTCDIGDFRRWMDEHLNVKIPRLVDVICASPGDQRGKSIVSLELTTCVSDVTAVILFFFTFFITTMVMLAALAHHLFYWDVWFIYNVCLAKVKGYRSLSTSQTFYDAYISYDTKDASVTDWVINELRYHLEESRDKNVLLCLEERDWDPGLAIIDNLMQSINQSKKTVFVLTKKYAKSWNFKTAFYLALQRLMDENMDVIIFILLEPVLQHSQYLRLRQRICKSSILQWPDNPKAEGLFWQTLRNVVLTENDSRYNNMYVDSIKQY
The assay is described as follows: HEK293-Blue-hTLR-8 cells assay. Conditions: HEK293-Blue-hTLR8 cells, SEAP reporter, R848 stimulation, 20 hrs. The format is cell-based. The text has this:
HEK293-Blue-hTLR-8 Cells Assay:
A stable HEK293-Blue-hTLR-8 cell line was purchased from InvivoGen (Cat. #: hkb-htlr8, San Diego, Calif., USA). These cells were originally designed for studying the stimulation of human TLR8 by monitoring the activation of NF-κB. A SEAP (secreted embryonic alkaline phosphatase) reporter gene was placed under the control of the IFN-β minimal promoter fused to five NF-κB and AP-1-binding sites. The SEAP was induced by activating NF-κB and AP-1 via stimulating HEK-Blue hTLR8 cells with TLR8 ligands. Therefore the reporter expression was declined by TLR8 antagonist under the stimulation of a ligand, such as R848, for incubation of 20 hrs. The cell culture supernatant SEAP reporter activity was determined using QUANTI-Blue™ kit (Cat. #: rep-qb1, Invivogen, San Diego, Ca, USA) at a wavelength of 640 nm, a detection medium that turns purple or blue in the presence of alkaline phosphatase.
HEK293-Blue-hTLR8 cells were incubated at a density of 250,000-450,000 cells/mL in a volume of 170 μL in a 96-well plate in Dulbecco's Modified Eagle's medium (DMEM) containing 4.5 g/L glucose, 50 U/mL penicillin, […], […], 2 mM L-glutamine, 10% (v/v) heat-inactivated fetal bovine serum with addition of 20 μL test compound in a serial dilution in the presence of final DMSO at 1% and 10 sL of 60 uM R848 in above DMEM, perform incubation under 37° C. in a CO2 incubator for 20 hrs. Then 20 μL of the supernatant from each well was incubated with 180 sL Quanti-blue substrate solution at 37° C. for 2 hrs and the absorbance was read at 620˜655 nm using a spectrophotometer. The signalling pathway that TLR8 activation leads to downstream NF-κB activation has been widely accepted, and therefore similar reporter assay was modified for evaluating TLR8 antagonist.
`N#Cc1ccc(N2CC(C(=O)NC3CCCNCC3)C(C(F)(F)F)C2)c2cccnc12` (single isomer, unassigned) [Example 30A, N-(azepan-4-yl)-1-(8-cyano-5-quinolyl)-4-(trifluoromethyl)pyrrolidine-3-carboxamide] had an IC50 of 0.067 µM. This counts as double-digit nanomolar. `CC[C@@H]1CN(c2ccc(C#N)c3ncccc23)C[C@H]1C(=O)NC1CCN(C)CC1` (relative stereo) [Example 29, Trans-1-(8-cyano-5-quinolyl)-4-ethyl-N-(1-methyl-4-piperidyl)pyrrolidine-3-carboxamide] gave an IC50 of 0.096 µM.

As for `O=C(NC1CC2COCC(C1)N2)C1CN(c2ccc(C(F)(F)F)c3nccnc23)CC12CC2` (stereo not drawn) [Example 6, N-(3-oxa-9-azabicyclo[3.3.1]nonan-7-yl)-5-[8-(trifluoromethyl)quinoxalin-5-yl]-5-azaspiro[2.4]heptane-7-carboxamide], the IC50 came out at 0.291 µM. For `O=C(NC1C2CCCC1CNC2)C1CN(c2ccc(C(F)(F)F)c3nccnc23)CC12CC2` (stereo not drawn) [Example 8, N-(3-azabicyclo[3.3.1]nonan-9-yl)-5-[8-(trifluoromethyl)quinoxalin-5-yl]-5-azaspiro[2.4]heptane-7-carboxamide], half-maximal inhibition (IC50) required 0.216 µM. In turn, `CC(C)[C@@H]1CN(c2ccc(C#N)c3ncccc23)C[C@H]1C(=O)NC1CCN(C)CC1` (relative stereo) [Example 37, Trans-1-(8-cyano-5-quinolyl)-4-isopropyl-N-(1-methyl-4-piperidyl)pyrrolidine-3-carboxamide] showed an IC50 of 0.489 µM. Under `CN1CCC(NC(=O)C2CN(c3ccc(C#N)c4ncccc34)CC2C(F)(F)F)CC1` (stereo not drawn) [Example 18, 1-(8-Cyano-5-quinolyl)-N-(1-methyl-4-piperidyl)-4-(trifluoromethyl)pyrrolidine-3-carboxamide] stands 0.075 µM. In the case of `NC1CC2(C1)CC(NC(=O)C1CN(c3ccc(C(F)(F)F)c4nccnc34)CC13CC3)C2` (stereo not drawn) [Example 22, N-(6-aminospiro[3.3]heptan-2-yl)-5-[8-(trifluoromethyl)quinoxalin-5-yl]-5-azaspiro[2.4]heptane-7-carboxamide] it was 0.065 µM; in that of `C[C@H]1CN(c2ccc(C(F)(F)F)c3nccnc23)C[C@@H]1C(=O)NC1CCN(C)CC1` [Example 5, (3R,4R)-4-methyl-N-(1-methyl-4-piperidyl)-1-[8-(trifluoromethyl)quinoxalin-5-yl]pyrrolidine-3-carboxamide], 0.011 µM; in that of `CN1CCCC(CNC(=O)C2CN(c3ccc(C#N)c4ncccc34)CC23CC3)C1` (stereo not drawn) [Example 51, 5-(8-Cyano-5-quinolyl)-N-[(1-methyl-3-piperidyl)methyl]-5-azaspiro[2.4]heptane-7-carboxamide], 0.398 µM.

Molecule `CN1CC(NC(=O)C2CN(c3ccc(C(F)(F)F)c4nccnc34)CC23CC3)C2(CC2)C1` (stereo not drawn) [Example 20, N-(5-methyl-5-azaspiro[2.4]heptan-7-yl)-5-[8-(trifluoromethyl)quinoxalin-5-yl]-5-azaspiro[2.4]heptane-7-carboxamide] displayed an IC50 of 0.369 µM.

Molecule `NC1CC(NC(=O)C2CN(c3ccc(C(F)(F)F)c4nccnc34)CC23CC3)C1` (stereo not drawn) [Example 38, N-(3-Aminocyclobutyl)-5-[8-(trifluoromethyl)quinoxalin-5-yl]-5-azaspiro[2.4]heptane-7-carboxamide] showed an IC50 of 0.172 µM.

Molecule `CN1CCC(NC(=O)[C@H]2CN(c3ccc(C#N)c4ncccc34)C[C@@H]2C(F)(F)F)CC1` [Example 4, (3R,4R)-1-(8-cyano-5-quinolyl)-N-(1-methyl-4-piperidyl)-4-(trifluoromethyl)pyrrolidine-3-carboxamide] returned an IC50 of 0.025 µM. Under `O=C(NC1CC2(CCNCC2)C1)C1CN(c2ccc(C(F)(F)F)c3nccnc23)CC12CC2` (stereo not drawn) [Example 34, N-(7-azaspiro[3.5]nonan-2-yl)-5-[8-(trifluoromethyl)quinoxalin-5-yl]-5-azaspiro[2.4]heptane-7-carboxamide] stands 0.437 µM; under `C[C@H]1CN(c2ccc([N+](=O)[O-])c3ncccc23)C[C@@H]1C(=O)NC1CCN(C)CC1` [Example 27, (3R,4R)-4-Methyl-N-(1-methyl-4-piperidyl)-1-(8-nitro-5-quinolyl)pyrrolidine-3-carboxamide], 0.052 µM; under `N[C@@H]1CCC[C@H](NC(=O)C2CN(c3ccc(C(F)(F)F)c4nccnc34)CC23CC3)C1` (relative stereo) [Example 43, Cis-N-(3-aminocyclohexyl)-5-[8-(trifluoromethyl)quinoxalin-5-yl]-5-azaspiro[2.4]heptane-7-carboxamide], 0.124 µM.

`C[C@@H]1CN(c2ccc(C#N)c3ncccc23)C[C@H]1C(=O)NC1CCCNCC1` (single isomer, unassigned) [Example 52A, Trans-N-(azepan-4-yl)-1-(8-cyano-5-quinolyl)-4-methyl-pyrrolidine-3-carboxamide] registered an IC50 of 0.225 µM.

Molecule `CN1CCC(NC(=O)[C@@H]2CN(c3ccc(C#N)c4ncccc34)C[C@H]2C2CC2)CC1` (relative stereo) [Example 14, Trans-1-(8-cyano-5-quinolyl)-4-cyclopropyl-N-(1-methyl-4-piperidyl)pyrrolidine-3-carboxamide] showed an IC50 of 0.193 µM. This IC50 and that of the molecule before are within 1.5-fold of each other. In the case of `C[C@@H]1CN(c2ccc(C#N)c3ncccc23)C[C@H]1C(=O)N1CCC2(CCNCC2)CC1` (relative stereo) [Example 32, Trans-5-[3-(3,9-diazaspiro[5.5]undecane-3-carbonyl)-4-methyl-pyrrolidin-1-yl]quinoline-8-carbonitrile] it was 0.213 µM. Consider `N[C@@H]1C[C@H](NC(=O)C2CN(c3ccc(C(F)(F)F)c4nccnc34)CC23CC3)[C@@H]2C[C@@H]21` (stereo partly drawn) [Example 36, N-[(1R,2S,4R,5S)-4-amino-2-bicyclo[3.1.0]hexanyl]-5-[8-(trifluoromethyl)quinoxalin-5-yl]-5-azaspiro[2.4]heptane-7-carboxamide], for which the IC50 is 0.251 µM.

`C[C@H]1CN(c2ccc(Cl)c3ncccc23)C[C@@H]1C(=O)NC1CCN(C)CC1` [Example 50, (3R,4R)-1-(8-chloro-5-quinolyl)-4-methyl-N-(1-methyl-4-piperidyl)pyrrolidine-3-carboxamide] gave an IC50 of 0.147 µM. This IC50 is about 1.7-fold lower than that of the molecule before. In the case of `CN1CCC(NC(=O)[C@@H]2CN(c3ccc(Cl)c4ncccc34)C[C@H]2C(F)(F)F)CC1` (relative stereo) [Example 46, Trans-1-(8-chloro-5-quinolyl)-N-(1-methyl-4-piperidyl)-4-(trifluoromethyl)pyrrolidine-3-carboxamide] it was 0.051 µM. Under `C[C@H]1CN(c2ccc(C#N)c3nccnc23)C[C@@H]1C(=O)NC1CCN(C)CC1` [Example 3, (3R,4R)-1-(8-cyanoquinoxalin-5-yl)-4-methyl-N-(1-methyl-4-piperidyl)pyrrolidine-3-carboxamide] stands 0.005 µM; under `C[C@H]1CN(c2ccc(C#N)c3nccnc23)C[C@@H]1C(=O)NC1CCN(C2CCNCC2)CC1` [Example 60, (3R,4R)-1-(8-cyanoquinoxalin-5-yl)-4-methyl-N-[1-(4-piperidyl)-4-piperidyl]pyrrolidine-3-carboxamide], 0.048 µM. In the case of `N#Cc1ccc(N2CC(C(=O)NC[C@@H]3CNCCO3)C3(CC3)C2)c2nccnc12` (single isomer, unassigned) [Example 71B] it was 0.134 µM.
